One test has as its system Frizzled1. The following applies: according to WO 2011/035321 (A1); cited from earlier work.
A further test has as its system Dishevelled-2 protein. The following applies: according to WO 2011/035321 (A1); cited from earlier work.
In test [1] the test system is LEF/TCF reporter activity. The following applies: Wnt3A-stimulated; according to WO 2011/035321 (A1); cited from earlier work.
In test [2] the test system is Wnt3A-stimulated R-catenin stabilization. The following applies: according to WO 2011/035321 (A1); cited from earlier work.
Another test deals with HCT116 FOPFlash. Description: Control reporter assay, HCT116 FOP control vector (non-functional TCF elements), luciferase expression. The test is classed as cell-based. The following applies: Homo sapiens, HCT116 FOP control reporter cells, 36 hours incubation, dilution series 50 μM to 15 nM. The gist of the method: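 Stable HCT116 cells carrying FOP vector (randomized non-functional TCF sites) plus pcDNA3, run in parallel with TOP line; compounds 50 μM to 15 nM (3.16-fold steps) added in CAFTY buffer pH 7.4 with 2 mM Ca2+, 0.01% BSA. Incubated 36 h at 37 °C, 5% CO2; luciferase luminescence read.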
For orientation: A reporter such as luciferase makes a cellular process visible.

The test system of test [3] is constitutive active colorectal cancer cell (CRC) Wnt pathway, HCT116 TOPFlash. Description: Cellular reporter assay, HCT116 Super TopFlash (constitutive active Wnt pathway), luciferase expression. The test is classed as cell-based. The following applies: Homo sapiens, HCT116 Super TopFlash reporter cells, 36 hours incubation, dilution series 50 μM to 15 nM. The method, boiled down:
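HCT116 cells stably carrying Super TopFlash (β-catenin ΔS45, constitutive Wnt) run in parallel with FOP control line; compounds 50 μM to 15 nM (3.16-fold) in CAFTY buffer pH 7.4 with 2 mM Ca2+, 0.01% BSA, 36 h at 37 °C. Luciferase luminescence read as Wnt activity.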

Each structure is given as a SMILES string. Structures can show the parent of a compound that is named as a salt. Some results are limits rather than exact numbers.

Results on 24 molecules are retold here after US20170107212A1, “NOVEL COMPOUNDS” (Bayer Pharma Aktiengesellschaft, priority 2014, published 2017).

Regarding `O=C(Nc1ccc([N+](=O)[O-])cc1Cl)c1cc(Cl)ccc1O` [niclosamide], the “Frizzled1 internalization (endocytosis)” value in the test with Frizzled1 was “promotes Frizzled1 internalization (endocytosis)”. For the same molecule, the Dishevelled-2 protein regulation result with Dishevelled-2 protein is “down regulates Dishevelled-2 protein”. Moreover, the LEF/TCF reporter activity entry in test [1] is “inhibits”. Besides, the “Wnt3A-stimulated R-catenin stabilization” value in test [2] is recorded as “inhibits”.
For orientation: IC50 means the concentration needed to halve the response being measured. For the molecule `O=C(CN1CCOCC1)Nc1cc(C(=O)Nc2ccc(-c3cncnc3)cn2)ccc1OC1CC1` [Example 75, 4-(cyclopropyloxy)-3-[(morpholin-4-ylacetyl)amino]-N-[5-(pyrimidin-5-yl)pyridin-2-yl]benzamide], the IC50 in the test on HCT116 FOPFlash (HCT-116, 36 h) is at least 50000 nM; in test [3] (HCT-116, 36 h), 37 nM.
As for `O=C(CN1CCOCC1)Nc1cc(C(=O)Nc2nnc(-c3cscn3)s2)ccc1OC(F)(F)F` [Example 67, 3-[(morpholin-4-ylacetyl)amino]-N-[5-(1,3-thiazol-4-yl)-1,3,4-thiadiazol-2-yl]-4-(trifluoromethoxy)benzamide], the IC50 with HCT116 FOPFlash (HCT-116, 36 h) was at least 50000 nM; in test [3] (HCT-116, 36 h) it was 1650 nM.
As for `Cc1cccnc1-c1nnc(NC(=O)c2ccc(OC(F)(F)F)c(NC(=O)CN3CCN(C)CC3)c2)s1` [Example 42, 1-methyl-4-(2-{[5-{[5-(3-methylpyridin-2-yl)-1,3,4-thiadiazol-2-yl]carbamoyl}-2-(trifluoromethoxy)phenyl]amino}-2-oxoethyl)piperazin-1-ium hexafluorophosphate], the 50% inhibitory concentration (IC50) in the test with HCT116 FOPFlash (HCT-116) was 38500 nM; in test [3] (HCT-116), 320 nM.
In the case of `CN1CCN(CC(=O)Nc2cc(C(=O)Nc3ccc(-c4ccc(N)nc4)cn3)ccc2OC(F)(F)F)CC1` [Example 10, N-(6′-amino-3,3′-bipyridin-6-yl)-3-{[(4-methylpiperazin-1-yl)acetyl]amino}-4-(trifluoromethoxy)benzamide], the IC50 is at least 50000 nM in the test with HCT116 FOPFlash (HCT-116, 36 h) and 58 nM in test [3] (HCT-116, 36 h).
As for `O=C(CN1CCOCC1)Nc1cc(C(=O)Nc2nnc(-c3cncc(Cl)c3)s2)ccc1OC(F)(F)F` [Example 47, N-[5-(5-chloropyridin-3-yl)-1,3,4-thiadiazol-2-yl]-3-[(morpholin-4-ylacetyl)amino]-4-(trifluoromethoxy)benzamide], the half-inhibitory concentration (IC50) in the test on HCT116 FOPFlash (HCT-116, 36 h) is at least 50000 nM; in test [3] (HCT-116, 36 h), 585 nM.
For `CN1CCN(CC(=O)Nc2cc(C(=O)Nc3ccc(-c4cccnc4F)cn3)ccc2OC(F)(F)F)CC1` [Example 13, N-(2′-fluoro-3,3′-bipyridin-6-yl)-3-{[(4-methylpiperazin-1-yl)acetyl]amino}-4-(trifluoromethoxy)benzamide] the same measures were at least 50000 nM and 41.5 nM.
For the molecule `Nc1ncc(-c2nnc(NC(=O)c3ccc(OC(F)(F)F)c(NC(=O)CN4CCOCC4)c3)s2)s1` [Example 104, N-[5-(2-amino-1,3-thiazol-5-yl)-1,3,4-thiadiazol-2-yl]-3-[(morpholin-4-ylacetyl)amino]-4-(trifluoromethoxy)benzamide], the half-inhibitory concentration (IC50) with HCT116 FOPFlash (HCT-116, 36 h) is at least 50000 nM; in test [3] (HCT-116, 36 h), 17900 nM.
For `CN1CCN(CC(=O)Nc2cc(C(=O)Nc3ccc(-c4cnc(N)nc4)cn3)ccc2OC(F)(F)F)CC1` [Example 12, N-[5-(2-aminopyrimidin-5-yl)pyridin-2-yl]-3-{[(4-methylpiperazin-1-yl)acetyl]amino}-4-(trifluoromethoxy)benzamide] the same measures were at least 50000 nM and 132 nM.
Consider `Cc1ncccc1-c1nnc(NC(=O)c2ccc(OC(F)(F)F)c(NC(=O)CN3CCN(C)CC3)c2)s1` [Example 27, 3-{[(4-methylpiperazin-1-yl)acetyl]amino}-N-[5-(2-methylpyridin-3-yl)-1,3,4-thiadiazol-2-yl]-4-(trifluoromethoxy)benzamide], for which the half-maximal inhibitory concentration (IC50) in the test on HCT116 FOPFlash (HCT-116, 36 h) was at least 50000 nM; in test [3] (HCT-116, 36 h) it was 2700 nM.
Turning to `COCCOc1ccc(C(=O)Nc2nnc(-c3cnccc3C)s2)cc1NC(=O)CN1CCN(C)CC1` [Example 73, 4-(2-methoxyethoxy)-3-{[(4-methylpiperazin-1-yl)acetyl]amino}-N-[5-(4-methylpyridin-3-yl)-1,3,4-thiadiazol-2-yl]benzamide], the concentration for half-maximal inhibition (IC50) with HCT116 FOPFlash (HCT-116, 36 h) is at least 50000 nM; in test [3] (HCT-116, 36 h), 1000 nM.
In the case of `O=C(CN1CCOCC1)Nc1cc(C(=O)Nc2nnc(-c3cncnc3)s2)ccc1OC(F)(F)F` [Example 69, 3-[(morpholin-4-ylacetyl)amino]-N-[5-(pyrimidin-5-yl)-1,3,4-thiadiazol-2-yl]-4-(trifluoromethoxy)benzamide], the IC50 is at least 50000 nM in the test with HCT116 FOPFlash (HCT-116, 36 h) and 2450 nM in test [3] (HCT-116, 36 h).
Consider `Cc1cccnc1-c1nnc(NC(=O)c2ccc(OC(F)(F)F)c(NC(=O)CN3CCOCC3)c2)s1` [Example 89, N-[5-(3-methylpyridin-2-yl)-1,3,4-thiadiazol-2-yl]-3-[(morpholin-4-ylacetyl)amino]-4-(trifluoromethoxy)benzamide], for which the IC50 in the test on HCT116 FOPFlash (HCT-116, 36 h) is at least 50000 nM; in test [3] (HCT-116, 36 h), 845 nM.
On to `O=C(CN1CCOCC1)Nc1cc(C(=O)Nc2cnc(-c3cccnc3)s2)ccc1OC1CC1` [Example 76, 4-(cyclopropyloxy)-3-[(morpholin-4-ylacetyl)amino]-N-[2-(pyridin-3-yl)-1,3-thiazol-5-yl]benzamide], for which the IC50 in the test on HCT116 FOPFlash (HCT-116, 36 h) was at least 50000 nM; in test [3] (HCT-116, 36 h) it was 155 nM.
For the molecule `CN1CCN(CC(=O)Nc2cc(C(=O)Nc3nnc(-c4cnccn4)s3)ccc2OC(F)(F)F)CC1` [Example 97, 3-{[(4-methylpiperazin-1-yl)acetyl]amino}-N-[5-(pyrazin-2-yl)-1,3,4-thiadiazol-2-yl]-4-(trifluoromethoxy)benzamide], the IC50 was at least 50000 nM with HCT116 FOPFlash (HCT-116, 36 h) and 7050 nM in test [3] (HCT-116, 36 h).
Regarding `CN1CCN(CC(=O)Nc2cc(C(=O)Nc3nnc(-c4cncc(Cl)c4)s3)ccc2OC(F)(F)F)CC1` [Example 40, formic acid-N-[5-(5-chloropyridin-3-yl)-1,3,4-thiadiazol-2-yl]-3-{[(4-methylpiperazin-1-yl)acetyl]amino}-4-(trifluoromethoxy)benzamide (1:1)], the IC50 with HCT116 FOPFlash (HCT-116, 36 h) is at least 50000 nM; in test [3] (HCT-116, 36 h) it was 114 nM.
`CC(C(=O)Nc1cc(C(=O)Nc2ccc(-c3ccc(N)nc3)nc2)ccc1OC(F)(F)F)N1CCOCC1` (centres unmarked) [Example 3, N-(6′-amino-2,3′-bipyridin-5-yl)-3-{[2-(morpholin-4-yl)propanoyl]amino}-4-(trifluoromethoxy)benzamide]: the IC50 was at least 50000 nM with HCT116 FOPFlash (HCT-116, 36 h) and 20.9 nM in test [3] (HCT-116, 36 h).
For `Nc1ccc(-c2nnc(NC(=O)c3ccc(OC(F)(F)F)c(NC(=O)CN4CCOCC4)c3)s2)cn1` [Example 55, N-[5-(6-aminopyridin-3-yl)-1,3,4-thiadiazol-2-yl]-3-[(morpholin-4-ylacetyl)amino]-4-(trifluoromethoxy)benzamide] the same measures were at least 50000 nM and 240 nM.
Take `CC(C(=O)Nc1cc(C(=O)Nc2ccc(-c3ccncc3)nc2)ccc1OC(F)(F)F)N1CCOCC1` (centres unmarked) [Example 22, N-(2,4′-bipyridin-5-yl)-3-{[2-(morpholin-4-yl)propanoyl]amino}-4-(trifluoromethoxy)benzamide]: the 50% inhibitory concentration (IC50) is at least 50000 nM in the test with HCT116 FOPFlash (HCT-116, 36 h) and 285 nM in test [3] (HCT-116, 36 h).
As to `CN1CCN(CC(=O)Nc2cc(C(=O)Nc3cnc(-c4ccnc(N)c4)cn3)ccc2OC(F)(F)F)CC1` [Example 53, N-[5-(2-aminopyridin-4-yl)pyrazin-2-yl]-3-{[(4-methylpiperazin-1-yl)acetyl]amino}-4-(trifluoromethoxy)benzamide], the concentration for half-maximal inhibition (IC50) in the test with HCT116 FOPFlash (HCT-116, 36 h) was at least 50000 nM; in test [3] (HCT-116, 36 h) it was 2000 nM.
On to `CN1CCN(CC(=O)Nc2cc(C(=O)Nc3nnc(-c4cnccc4C(F)(F)F)s3)ccc2OC(F)(F)F)CC1` [Example 70, 3-{[(4-methylpiperazin-1-yl)acetyl]amino}-4-(trifluoromethoxy)-N-{5-[4-(trifluoromethyl)pyridin-3-yl)-1,3,4-thiadiazol-2-yl}benzamide], for which the IC50 is at least 50000 nM in the test on HCT116 FOPFlash (HCT-116, 36 h) and 5150 nM in test [3] (HCT-116, 36 h).
For `Cc1ccncc1-c1nnc(NC(=O)c2ccc(OCC(F)(F)F)c(NC(=O)CN3CCN(C)CC3)c2)s1` [Example 61, 3-{[(4-methylpiperazin-1-yl)acetyl]amino}-N-[5-(4-methylpyridin-3-yl)-1,3,4-thiadiazol-2-yl]-4-(2,2,2-trifluoroethoxy)benzamide] the same measures were at least 50000 nM and 340 nM.
For `CN1CCN(C2(C(=O)Nc3cc(C(=O)Nc4nnc(-c5ccccn5)s4)ccc3OC(F)(F)F)CC2)CC1` [Example 18, 3-({[1-(4-methylpiperazin-1-yl)cyclopropyl]carbonyl}amino)-N-[5-(pyridin-2-yl)-1,3,4-thiadiazol-2-yl]-4-(trifluoromethoxy)benzamide hydrochloride] the same measures were 10300 nM and 106 nM.
As to `Nc1ncc(-c2nnc(NC(=O)c3ccc(OC(F)(F)F)c(NC(=O)C4(N5CCOCC5)CC4)c3)s2)cn1` [Example 33, N-[5-(2-aminopyrimidin-5-yl)-1,3,4-thiadiazol-2-yl]-3-({[1-(morpholin-4-yl)cyclopropyl]carbonyl}amino)-4-(trifluoromethoxy)benzamide], the concentration for half-maximal inhibition (IC50) was at least 50000 nM in the test on HCT116 FOPFlash (HCT-116, 36 h) and 197 nM in test [3] (HCT-116, 36 h).
